Assays:
SEPHS1-iCKO mice = assay: post-traumatic osteoarthritis (DMM surgery) in SEPHS1-iCKO mice with NAC or selenate in drinking water; type: in vivo, mouse; settings: for osteoarthritis phenotype of SEPHS1-iCKO mice: drinking water with NAC 1 mg/mL or sodium selenate 1 ppm, from 5 days prior to DMM
Procedure: Selenate supplementation or NAC treatment was performed by supplying mice with drinking water in which sodium selenate (1 ppm) or NAC (1 mg/mL) was dissolved. Further, to Sephs1-iCKO mice, NAC, selenate or vehicle was supplemented 5 days prior to DMM surgery.
Posttraumatic osteoarthritis (OA) was induced by executing DMM surgery in 12-week-old (WT C57BL/6) or 13-week-old (SEPHS1^fl/fl or SEPHS1^fl/fl; Col2a1-CreER^T2) mice, and mice (sham) without DMM after incision were used as a control. These mice were sacrificed 6 or 8 weeks after DMM or sham surgery.
As an aging-associated OA model, 24-month-old C57BL/6 male mice were used for histological analysis and 3-month-old mice were used as a control. The extent of cartilage degeneration in the knee joint was assessed by safranin-O staining and scored using the OARSI grading system.

[1] = system: SEPHS1 knockout mouse-derived chondrocytes; assay: DNA damage (γ-H2AX foci) in SEPHS1 knockout mouse-derived chondrocytes; type: cell-based; settings: after NAC treatment
Procedure: (§1) For primary culture of mouse articular chondrocytes, cells derived from femoral condyle and tibial plateaus of 5-day-old ICR mice were isolated. Chondrocytes were cultured in DMEM medium containing 10% FBS (Gibco), 100 units/mL of penicillin, and 100 μg/mL of streptomycin. After 2 days, cells were treated according to the purpose of each experiment. The cultured cells were maintained at 37° C. under 5% CO2 and 3% O2 conditions. In addition, DNA damage and senescence-associated β-galactosidase (SA-β-gal) activity were measured to determine the relationship between SEPHS1 deficiency and cellular senescence. […] In order to determine whether the DNA damage and the increase in SA-β-gal activity caused by SEPHS1 inhibition were caused by the accumulation of ROS, SEPHS1 knockout mouse-derived chondrocytes were additionally treated with N-acetylcysteine (NAC), followed by repeatedly performing the same experiment. As a result, it was confirmed that DNA damage caused by SEPHS1 inhibition and the increase in SA-β-gal activity were reduced after NAC treatment (FIGS. 3P to 3S).

[2] = system: SEPHS1 knockout mouse-derived chondrocytes; assay: senescence-associated β-galactosidase (SA-β-gal) activity in SEPHS1 knockout mouse-derived chondrocytes; type: cell-based; settings: after NAC treatment
Procedure: as §1

| Structure (SMILES) | osteoarthritis phenotype of SEPHS1-iCKO mice (SEPHS1-iCKO mice) | DNA damage caused by SEPHS1 inhibition [1] | increase in SA-β-gal activity [2] | weight imbalance between the operated legs and the other legs without operation (SEPHS1-iCKO mice; SEPHS1-iCKO mice, NAC 1 mg/mL in drinking water) |
| --- | --- | --- | --- | --- |
| O=[Se](=O)([O-])[O-].[Na+].[Na+] [selenate, sodium selenate] | did not restore | – | – | – |
| CC(=O)N[C@@H](CS)C(=O)O [NAC, N-acetylcysteine] | alleviated | reduced | reduced | alleviated |

Reference: patent US20240382518A1, “PHARMACEUTICAL COMPOSITION AND HEALTH FUNCTIONAL FOOD FOR PREVENTION OR TREATMENT OF OSTEOARTHRITIS” (SEOUL NATIONAL UNIVERSITY R&DB FOUNDATION, priority 2021, published 2024)
